The values below come from patent US20140057841A1, “HUMAN INSULIN AND ANALOG CONJUGATE THEREOF” (Chongqing Fagen Biomedical Inc., priority 2011, published 2014).

Where two headings read alike, the source gives them in different places.

Assay [1] deals with Type 1 diabetes model of KunMing mice. As to the kind of experiment: Blood sugar lowering in mice Type 1 diabetes model. The class given is in vivo. Particulars: subcutaneous 0.25 mg/kg, STZ mice; for time the blood sugar lowering effect may sustain: empty stomach blood sugar. Here is the method: 70 healthy KunMing male SPF mice (purchased from the Third Military Medical Univ., China) with body weight of 25-30 g were fed with water only and no food for 14 hours, and then subject to 120 mg/kg of rapid intraperitoneal injection of streptozotocin (STZ) solution (4.8 mg/ml) that was prepared with citric acid- trisodium citrate buffer, to establish a Type 1 diabetes model. After the injection, the mice were immediately fed with food and water. After 48 hours of model establishing, blood was sampled from caudal vein, and blood sugar value was detected with glucometer (Bayer's Fast Glucometer) after fasting for 2 hours, wherein a blood sugar value of >11.1 mmol/L indicates successful modeling. […] Groups B, C, and D were respectively subject to subcutaneous administration by a dosage of 0.25 mg/kg, and group A was injected with isovolumetric solvent. Before administration (i.e., 0 hour) and after 1, 2, 6, 10, 15, 18, and 24 hours of administration, blood was sampled from caudal vein for the detection of empty stomach (fasting for 2 hours) blood sugar value. The average blood sugar value was calculated and time activity curve was made (FIG. 4).
The average blood sugar value was calculated and time activity curve was made (FIG. 5).

The test system of assay [2] is Type 1 diabetes model of New Zealand albino rabbits. The experiment in a line: Blood sugar lowering experiment on Type 1 diabetes model (IDDM) rabbits. The class given is in vivo. The following applies: subcutaneous 0.2 mg/kg; for hypoglycemic activity: rabbit Type 1 diabetes model; for time the blood sugar lowering effect may sustain: tetraoxypyrimidine rabbits, empty stomach blood sugar. The procedure: 40 male New Zealand albino rabbits (purchased from the Third Military Medical Univ., China) with body weight of 2-3 kg were fed with water only and no food for 24 hours, and then subject to 5 ml/kg of ear vein single injection of tetraoxypyrimidine solution (with concentration of 20 mg/ml) to establish models. After the injection, the rabbits were immediately fed with food and water. After 3 days of model establishing, blood was sampled every day from ear vein after fasting for 6 hours, and blood sugar value was detected with glucometer, wherein a blood sugar value of >11.1 mmol/L indicates successful modeling. […] Groups B, C, and D were respectively subject to subcutaneous administration by a dosage of 0.2 mg/kg, and group A was injected with isovolumetric solvent. Before administration (i.e., 0 hour) and after 1, 2, 4, 8, 12, 24, 36, 48, 60, 72, 84, and 96 hours of administration, blood was sampled from ear vein for the detection of empty stomach (fasting for 6 hours) blood sugar value (Fast Glucometer, Bayer). The average blood sugar value was calculated and time activity curve was made (FIG. 6).
The average blood sugar value was calculated and time activity curve was made (FIG. 7).

The subject of assay [3] is Beagle dog Type 1 diabetes model. The experiment in a line: Blood sugar lowering experiment of DesB30-20 k conjugate on Beagle dog Type 1 diabetes model. The class given is in vivo, Beagle dogs. Here is the method: 20 healthy Beagle dogs (purchased from the Third Military Medical Univ., China) with body weight of 5-8 kg were fed with water only and no food for 24 hours, and then subject to foreleg subcutaneous vein injection of tetraoxypyrimidine solution (200 mg/ml) and STZ solution (120 mg/ml), with respective dosage of 50 mg/kg and 30 mg/kg, to establish Type 1 diabetes models. After the injection, the dogs were immediately fed with food and water. After 72 hours of model establishing, successful modeling was indicated by the signs of polyphagia, polydipsia, polyuria, lose weight, and blood sugar value of >11.1 mmol/L. 12 modeled dogs were randomly divided into 3 groups, 4 for each group (group A, control, group B, administration by 0.05 mg/kg, and group C, administration by 0.10 mg/kg), and subject to subcutaneous administration for one time. After 0, 2, 6, 12, 18, 24, 36, 48, 72, 96, and 120 hours of administration, blood was sampled from hindlimb vein for the detection of empty stomach (fasting for 6 hours) blood sugar value (GOD-POD method). The average blood sugar value was calculated and single administration time activity curve was made (FIG. 8). […] Then, the model animals were tested with multiple times of subcutaneous administration, with an interval of 72 hours (with a dosage of 0.05 mg/kg, 0.10 mg/kg, or isovolumetric solvent) for 6 times. From Day 1 to Day 21 after the administration, empty stomach blood sugar value was detected every three days, and blood was sampled after the last administration for pharmacokinetics experiments. […] The durations of hypoglycemic activity for single and multiple administrations are basicly the same, i.e., 72 hours. During the multiple administrations, the empty stomach blood sugar value of animals in administration groups were kept in average with about 5 mmol/L, whereas the empty stomach blood sugar value of animals in control group were kept in average with about 25 mmol/L.

For assay [4] the following is noted: in human body; cited from earlier work.
The conditions of assay [5]: in animals; cited from earlier work.

Regarding “DesB30-5K: DesB30 recombinant human insulin coupled at the ε-amino group of Lys B29 to 5K mPEG-SPA via amide bond”, in assay [1], the “hypoglycemic activity” value was “significant hypoglycemic activity” and the “time the blood sugar lowering effect may sustain” value is reported as “about 8 hours”. Also, in assay [2], the “hypoglycemic activity” value was “significant hypoglycemic activity” and the “time the blood sugar lowering effect may sustain” value is listed as “about 15 hours”.
As for “DesB30-10K: DesB30 recombinant human insulin coupled at the ε-amino group of Lys B29 to 10K mPEG-SPA via amide bond”, in assay [1], the “hypoglycemic activity” value is “significant hypoglycemic activity” and the “time the blood sugar lowering effect may sustain” value is listed as “about 12 hours”. In addition, in assay [2], the “hypoglycemic activity” value was “significant hypoglycemic activity” and the “time the blood sugar lowering effect may sustain” value is given as “about 30 hours”.
“DesB30-20K: DesB30 recombinant human insulin coupled at the ε-amino group of Lys B29 to 20K mPEG-SPA via amide bond”: the “hypoglycemic activity” value in assay [1] is “significant hypoglycemic activity”; in assay [2], “significant hypoglycemic activity”; in assay [3] (Beagle dogs Type 1 diabetes model, 0.05 and 0.10 mg/kg), “significant hypoglycemic activity”. Further, the figures for the “time the blood sugar lowering effect may sustain” value in assay [1] and in assay [2] were “about 18 hours” and “about 55 hours”, respectively. Further, the “average empty stomach blood sugar value during multiple administrations” value in assay [3] (administration groups (0.05 or 0.10 mg/kg s.c., every 72 hours, 6 times), control about 25 mmol/L) was “about 5 mmol/L”. In addition, the “time blood sugar is effectively lowered” value in assay [3] (single subcutaneous administration, 0.10 mg/kg) is 72 h. Besides, in assay [3] (single, and multiple subcutaneous administrations (interval 72 hours, 6 times)), the “duration of hypoglycemic activity for single and multiple administrations” value is 72 h.
“Ins-5K: recombinant human insulin conjugate with 5K mPEG-SPA at Lys B29, prepared as in Example 2”: the “time the blood sugar lowering effect may sustain” value in assay [1] is given as “about 8 hours”; in assay [2], “about 15 hours”.
Turning to “Ins-10K: recombinant human insulin conjugate with 10K mPEG-SPA at Lys B29, prepared as in Example 3”, the figures for the “time the blood sugar lowering effect may sustain” value in assay [1] and in assay [2] were “about 12 hours” and “about 35 hours”, respectively.
For the substance “Ins-20K: recombinant human insulin conjugate with 20K mPEG-SPA at Lys B29, prepared as in Example 4”, the “time the blood sugar lowering effect may sustain” value is given as “about 18 hours” in assay [1] and “about 55 hours” in assay [2].
With insulin detemir, the duration of activity is 24 h in assay [4] and 12 h in assay [5].
